pIC50: −log10 of the molar value.
Target: T1, CYP2C8 (Homo sapiens, UniProt P10632)
T1 sequence (P10632 1-490): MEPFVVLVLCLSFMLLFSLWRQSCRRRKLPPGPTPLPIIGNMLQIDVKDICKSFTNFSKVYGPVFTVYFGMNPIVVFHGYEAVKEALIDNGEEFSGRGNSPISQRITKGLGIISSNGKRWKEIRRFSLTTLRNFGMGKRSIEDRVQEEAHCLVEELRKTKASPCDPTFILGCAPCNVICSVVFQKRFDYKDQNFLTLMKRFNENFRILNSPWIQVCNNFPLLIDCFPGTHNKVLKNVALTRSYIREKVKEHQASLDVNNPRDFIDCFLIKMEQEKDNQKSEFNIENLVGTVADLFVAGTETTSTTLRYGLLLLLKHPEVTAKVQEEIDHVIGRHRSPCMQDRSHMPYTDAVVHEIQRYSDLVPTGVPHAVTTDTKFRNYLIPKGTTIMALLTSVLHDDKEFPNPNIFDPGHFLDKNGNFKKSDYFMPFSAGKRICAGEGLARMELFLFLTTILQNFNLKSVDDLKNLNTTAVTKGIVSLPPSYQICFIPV
Details: pH 7.4
Method: Assay Methodology for CYP2C8
• 400 μM diethoxyfluorescein, (i.e. 0.155 mg/mL in acetonitrile)—store at approx. −20° C. in the dark • 2% (w/v) NaHCO3—store at approx. 4° C. • 50 mM potassium phosphate buffer, pH 7.4
Freshly prepared cofactor solution:—approx. the following per mL of 2% (w/v) NaHCO3 • 1.7 mg NADP, monosodium salt • 7.8 mg glucose-6-phosphate, monosodium salt • 6 Units glucose-6-phosphate dehydrogenase, Type VII from Bakers Yeast Method: • 1) Pre-warm the plate reader oven to 37° C. and pre-warm the lamp for at least 10 minutes. • 2) Mix 2.5 μL of 400 µM diethoxyfluorescein, 5 μL (50 μg) CYP2C8 microsomal protein and 212.5 μL buffer per incubate (giving 4 µM diethoxyfluorescein and 200 μg/mL protein final concentration). • 3) To each well of a 96-well plate add 220 µL of incubation mix and 5 μL of test compound solution (or 5 μL of appropriate solvent for control wells—methanol, DMSO or acetonitrile may be used). • 4) Pre-incubate the multi-well plate in the plate reader at 37° C. for 5 minutes. Pre-warm the cofactor solution at 37° C. for 5 minutes. • 5) Add 25 μL cofactor solution to each well and scan with an excitation wavelength of 485 nm and an emission wavelength of 530 nm with a gain of 80. Scan for 10 cycles at 1 minute intervals.

- pIC50: 5.52
Compound: O=c1c(O)c(-c2ccc(O)c(O)c2)oc2cc(O)cc(O)c12 [quercitin]
